Experimental data from paper PMC8705362, “Cytochrome P450 and P-gp Mediated Herb-Drug Interactions and Molecular Docking Studies of Garcinol” (Membranes, 2021).
Read-outs that look alike come from different tables or passages of the source.

Legend:
CYP2B6 [1] = assay: In-vivo CYP inhibition study, pharmacokinetics of probe bupropion and hydroxy bupropion; conditions: plasma
CYP3A4 [2] = conditions: rats, midazolam 10 mg/kg in probe mixture on day 8, with garcinol 25 mg/kg oral for 7 days, plasma; second block of Table 3
CYP3A4 [3] = assay: in vivo; conditions: Sprague-Dawley, rat, plasma, po, 10 mg/kg
P-gp [4] = assay: In-vivo P-gp pharmacokinetic study with digoxin; design: species or system SD rats; conditions: for Cl / Cmax / AUC(0-inf) / AUC(0-t) / half-life: SD rats, plasma; for Cmax / AUC(0-inf) / AUC(0-t) / half-life: rat, po; for Cmax: 0.5 mg/kg
Experimental: Effect of single dose garcinol on the P-gp was evaluated in-vivo, 18 rats were divided into three groups (Group I- Group III). Group I (Control group): rats were administered intragastrically with a single dose of vehicle (0.5% CMC-Na), and after 2 h of vehicle administration, digoxin (0.5 mg/kg) was given to the rats by intragastric administration. Group II: Rats received a single dose of garcinol (25 mg/kg) and digoxin (0.5 mg/kg) after 2 h. Group III: Verapamil (potent P-gp inhibitor) was administered to these rats followed by the administration of digoxin (results not shown). 0.2 mL of blood was collected at 0, 0.25, 0.5, 1, 2, 4, 6, 8, 24, and 48 h, plasma was separated immediately by centrifuging blood samples at 5000 rpm for 5 min and stored at −80 °C until analysis.
50 µL of plasma samples was crashed with ice-cold ACN containing internal standard (75 ng/mL) and vortexed gently and centrifuged at 10,000 rpm for 5 min. Supernatant was collected and submitted for LC-MS/MS analysis. LC-MS analysis was performed on LC-QTOF/MS (Agilent, 6540) and chromatographic separation was achieved on Waters X-Bridge C18 column (3.5 µm, 50 mm × 1.76 mm I.D) at 30 °C. Digoxin was analysed by a mobile phase consisting of solvent A (0.1% Formic acid in water) and solvent B (100% ACN) flow at a rate of 0.4 mL/min with a gradient program of 5 min. The program consisted of initial10 %B from 0.01 to 3.00 min, followed by 90% B from 3.01 to 4.00 min and again to 10% B from 4.01 to 5.00 min. [M+H]+ ions were identified and quantified for Digoxin and IS as 781.4369 and 515.2442, respectively. Optimized MS operating parameters were as follows: drying gas 10 L/min, gas temperature 325 °C, nebulizer at 40 psig, fragmentor voltage of 140 V and skimmer at 65 V.

CYP2B6 [5] = assay: CYP2B6 inhibition, probe substrate cocktail in rat liver microsomes (bupropion hydroxylation); assay type: in vitro ADME; conditions: pH 7.4, probe bupropion (hydroxylation)
Experimental: (§1) Tacrine was used as CYP1A2 probe substrate instead of Phenacetin to avoid the possible interactions of Phenacetin with CYP2E1 probe substrate Chlorzoxazone. […] The above incubation mixture was pre-incubated for 5 min at 37 °C and the reaction was started by adding NADPH and terminated by the addition of 200 µL of ice-cold acetonitrile containing internal standard (IS). Then the mixture was vortex mixed and centrifuged at 4000 rpm for 10 min at 4 °C and supernatant was separated and analysed using LC-MS/MS.
(§2) IC50 values were determined by comparing each CYP isozyme activity in the presence of different concentrations of inhibitor (Garcinol) with the control incubations containing no inhibitor (Negative control). […]
(§3) The entire procedure is same as mentioned in section 2.3 except for various concentrations of the formulations
(§4) and extracts (0.41-100 µg/mL) and garcinol (0.11-30 µM) were used in the study.

CYP2E1 = CYP2E1 (Rattus norvegicus, UniProt P05182); assay: CYP2E1 inhibition, probe substrate cocktail in rat liver microsomes (chlorzoxazone 6-hydroxylation)
Chain of CYP2E1 (P05182 whole entry): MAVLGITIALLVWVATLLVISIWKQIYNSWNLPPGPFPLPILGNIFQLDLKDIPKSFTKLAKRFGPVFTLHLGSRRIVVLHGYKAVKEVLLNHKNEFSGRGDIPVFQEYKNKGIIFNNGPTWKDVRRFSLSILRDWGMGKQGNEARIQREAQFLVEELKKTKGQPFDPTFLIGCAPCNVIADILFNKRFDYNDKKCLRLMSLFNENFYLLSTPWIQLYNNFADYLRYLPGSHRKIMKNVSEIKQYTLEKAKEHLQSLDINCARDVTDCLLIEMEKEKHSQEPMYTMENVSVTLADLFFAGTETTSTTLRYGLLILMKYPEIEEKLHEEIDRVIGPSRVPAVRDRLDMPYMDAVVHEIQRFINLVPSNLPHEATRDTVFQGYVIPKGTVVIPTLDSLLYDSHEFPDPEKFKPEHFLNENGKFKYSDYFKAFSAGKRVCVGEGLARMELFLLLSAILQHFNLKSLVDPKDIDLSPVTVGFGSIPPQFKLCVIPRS
Experimental: as §1, §2, §3, §4

P-gp [6] = assay: Western blotting of P-gp expression in rat brain and intestine; assay type: in vivo, rats; conditions: garcinol 25 mg/kg intragastric once a day for 10 days, normalized to β-actin, p < 0.05
Experimental: For Western blot analysis, twelve rats were divided into two groups. […] On the 10th day, all the rats were sacrificed under CO2 euthanasia. Brain and intestine were isolated immediately and stored at −80 °C until use. 10 mg of intestinal and brain samples were lysed using ice-cold radio immunoprecipitation assay lysis buffer containing 0.02 mM phenylmethane sulfonyl fluoride for 30 min and ultrasonicated for 60 s at 20-s intervals in an ice bath. These samples were transferred to centrifugation tubes and centrifuged for 10 min at 8000 g by maintaining temperature at 4 °C. Supernatants were estimated for protein concentration using BCA protein assay kit by following the manufacturer’s instructions. Protein denaturation was performed by reconstituting the supernatant in lammelle buffer and boiled for 5 mins at 97 °C. The denatured samples were later separated on 10% SDS-polyacrylamide gel electrophoresis and then transferred onto a nitrocellulose membrane. The membrane was then blocked with 3% bovine serum albumin in Tris-buffered saline-Tween 20 (TBS-T) for 1 hr at 37 °C. These immunoblots were probed with primary monoclonal antibody P-gp (1:1000) or β-actin (1:1000) overnight at 4 °C. […] The band intensity of P-gp protein was normalized to that of β-actin detected using Azure biosystems.

CYP2C9 = CYP2C9 inhibition, probe substrate cocktail in rat liver microsomes (diclofenac 4-hydroxylation); assay type: in vitro ADME; conditions: pH 7.4, probe diclofenac (4-hydroxylation), rat liver microsomes 0.5 mg/mL, garcinol 0.11-30 µM
Experimental: as §1, §2, §3, §4

CYP2C19 = CYP2C19 inhibition, probe substrate cocktail in rat liver microsomes (S-mephenytoin 4-hydroxylation); assay type: in vitro ADME; conditions: pH 7.4, probe S-mephenytoin (4-hydroxylation), rat liver microsomes 0.5 mg/mL, garcinol 0.11-30 µM
Experimental: as §1, §2, §3, §4

CYP isoforms = assay: Time-dependent inhibition, IC50 shift assay in rat liver microsomes; assay type: in vitro ADME; conditions: 30 min pre-incubation with and without NADPH, all tested CYP isoforms
Experimental: Garcinol was pre-incubated with rat liver microsomes to determine the time-dependent inhibition potential of garcinol on various CYP isoforms individually. After 30 min of incubation with and without NADPH separately, metabolites of each CYP probe substrates were quantified using LC-MS/MS. IC50 values with and without NADPH pre-incubation were calculated using graph-pad prism and change in IC50 fold was calculated to evaluate the potential of garcinol to inhibit the CYP enzymes irreversibly. If the curve shifts to lower IC50 value after the pre- incubation in presence of NADPH, it is said to be a time-dependent inhibition. Concentrations of the test compound and other procedure were same as reversible inhibition study mentioned under Section 2.3.

CYP2C8 = CYP2C8 inhibition, probe substrate cocktail in rat liver microsomes (paclitaxel 6α-hydroxylation); assay type: in vitro ADME; conditions: for Inhibition of CYP2C8 (in words): rat liver microsomes, garcinol up to 30 µM
Experimental: as §1, §2, §3, §4

CYP1A2 = target: T1, CYP1A2 (Rattus norvegicus, UniProt P04799); assay: CYP1A2 inhibition, probe substrate cocktail in rat liver microsomes (tacrine 1-hydroxylation)
T1 sequence (P04799 1-513): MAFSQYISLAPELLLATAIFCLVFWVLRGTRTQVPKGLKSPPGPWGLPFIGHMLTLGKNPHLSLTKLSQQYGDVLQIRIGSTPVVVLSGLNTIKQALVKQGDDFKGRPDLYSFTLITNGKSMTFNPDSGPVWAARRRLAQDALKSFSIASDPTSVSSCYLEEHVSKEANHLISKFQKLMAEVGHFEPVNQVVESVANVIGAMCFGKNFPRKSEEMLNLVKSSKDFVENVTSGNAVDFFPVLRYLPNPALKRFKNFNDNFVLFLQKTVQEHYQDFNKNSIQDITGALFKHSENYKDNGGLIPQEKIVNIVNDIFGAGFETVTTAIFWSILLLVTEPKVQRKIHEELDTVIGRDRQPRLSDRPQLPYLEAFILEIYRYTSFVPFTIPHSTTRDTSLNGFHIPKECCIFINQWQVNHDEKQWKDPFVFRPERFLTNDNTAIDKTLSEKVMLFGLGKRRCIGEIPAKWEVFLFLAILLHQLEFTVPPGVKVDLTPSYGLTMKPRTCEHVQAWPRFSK
Experimental: as §1, §2, §3, §4

CYP2D6 = CYP2D6 inhibition, probe substrate cocktail in rat liver microsomes (dextromethorphan O-demethylation); assay type: in vitro ADME; conditions: pH 7.4, probe dextromethorphan (O-demethylation), rat liver microsomes 0.5 mg/mL, garcinol 0.11-30 µM
Experimental: as §1, §2, §3, §4

CYP3A4 [7] = assay: CYP3A4 inhibition, probe substrate cocktail in rat liver microsomes (midazolam 1-hydroxylation); assay type: in vitro ADME; conditions: pH 7.4, probe midazolam (1-hydroxylation), rat liver microsomes 0.5 mg/mL, garcinol 0.11-30 µM
Experimental: as §1, §2, §3, §4

[8] = rats, bupropion 10 mg/kg in probe mixture on day 8, with garcinol 25 mg/kg oral for 7 days
[9] = digoxin 0.5 mg/kg 2 h after single dose garcinol 25 mg/kg (group DGX + Garcinol)
[10] = Sprague-Dawley, digoxin 0.5 mg/kg intragastric 2 h after vehicle (group DGX)
[11] = Sprague-Dawley, rat, po, 10 mg/kg

Structure (SMILES): C[C@H]1NC(C)(C)CO[C@]1(O)c1cccc(Cl)c1 [Hydroxy Bupropion, hydroxybupropion]
- AUC0-∞ (CYP2B6 [1]; [8]): 6200.97 ± 106.97 ng·h/mL
- AUClast (CYP2B6 [1]; [8]): 6057.86 ± 101.41 ng·h/mL
- Cmax (CYP2B6 [1]; [8]): 632.02 ± 30.55 ng/mL
- Tmax (CYP2B6 [1]; [8]): 1 ± 1.93 h
- t1/2 (CYP2B6 [1]; [8]): 10.23 ± 0.04 h

Structure (SMILES): OCc1ncc2n1-c1ccc(Cl)cc1C(c1ccccc1F)=NC2 [hydroxy midazolam, 1-hydroxy midazolam]
- AUClast (CYP3A4 [2]): 737.45 ± 66.95 ng·h/mL
- Cmax (CYP3A4 [2]): 482.85 ± 14.34 ng/mL
- Tmax (CYP3A4 [2]): 0.25 ± 1.92 h
- t1/2 (CYP3A4 [2]): 2.15 ± 0.36 h

Structure (SMILES): Cc1ncc2n1-c1ccc(Cl)cc1C(c1ccccc1F)=NC2 [midazolam]
- AUC(0-inf) (CYP3A4 [3]): 1140 ± 77.4 ng·h/mL
- AUC(0-t) (CYP3A4 [3]): 1240 ± 18.6 ng·h/mL
- Cmax (CYP3A4 [3]): 829 ± 15.7 ng/mL
- Tmax (CYP3A4 [3]): 0.5 ± 1.23 h
- half-life (CYP3A4 [3]): 3.12 ± 0.88 h

Structure (SMILES): C[C@H]1O[C@@H](O[C@H]2[C@@H](O)C[C@H](O[C@H]3[C@@H](O)C[C@H](O[C@H]4CC[C@@]5(C)[C@H](CC[C@@H]6[C@@H]5C[C@@H](O)[C@]5(C)[C@@H](C7=CC(=O)OC7)CC[C@]65O)C4)O[C@@H]3C)O[C@@H]2C)C[C@H](O)[C@@H]1O [DGX, digoxin]
- Cl (P-gp [4]; [9]): 24.5793 ± 1.422 mL/min/kg
- Cl (P-gp [4]; digoxin 0.5 mg/kg intragastric 2 h after vehicle (group DGX)): 16.401 ± 0.9478 mL/min/kg
- Cmax (P-gp [4]; Sprague-Dawley, digoxin 0.5 mg/kg 2 h after single dose garcinol 25 mg/kg (group DGX + Garcinol)): 16.8 ± 4.22 ng/mL
- Cmax (P-gp [4]; [10]): 26.1 ± 5.23 ng/mL
- AUC(0-inf) (P-gp [4]; [10]): 254 ± 19.2 ng·h/mL
- AUC(0-t) (P-gp [4]; [10]): 172 ± 12.3 ng·h/mL
- half-life (P-gp [4]; [10]): 15.1 ± 0.35 h
- AUC(0-inf) (P-gp [4]; [9]): 172 ± 12.6 ng·h/mL
- AUC(0-t) (P-gp [4]; [9]): 151.4 ± 0.58 ng·h/mL
- half-life (P-gp [4]; [9]): 7.32 ± 1.75 h

Structure (SMILES): CC(NC(C)(C)C)C(=O)c1cccc(Cl)c1 (stereo not shown) [Bupropion, bupropion]
- AUC(0-inf) (CYP2B6 [1]; [11]): 48800 ng·h/mL
- AUC(0-t) (CYP2B6 [1]; [11]): 48200 ng·h/mL
- Cmax (CYP2B6 [1]; [11]): 8100 ± 121 ng/mL
- Tmax (CYP2B6 [1]; [11]): 2.5 ± 3.52 h

Structure (SMILES): C=C(C)[C@@H](CC=C(C)C)C[C@@]12C[C@@H](CC=C(C)C)C(C)(C)[C@@](CC=C(C)C)(C(=O)C(C(=O)c3ccc(O)c(O)c3)=C1O)C2=O [Garcinol]
- IC50 (CYP2B6 [5]): 2.1 µM
- IC50 (CYP2E1): 19 µM
- Effect on P-gp function in vivo (in words) (P-gp [4]; rats, single dose garcinol 25 mg/kg, digoxin as P-gp substrate): not an inhibitor of P-gp
- P-gp expression increase vs control group (P-gp [6]; rat brain tissue): 1.62 fold
- P-gp expression increase vs control group (P-gp [6]; rat intestinal tissue): 1.07 fold
- IC50 (CYP2C9): 8 µM
- IC50 (CYP2C19): 16.4 µM
- Shift in IC50 (time dependent inhibition) (CYP isoforms): no significant shift
- Shift in IC50 (time dependent inhibition) (CYP isoforms; listed as garcinol): did not show shift
- IC50 (CYP2C8; pH 7.4, probe paclitaxel (6α-hydroxylation), rat liver microsomes 0.5 mg/mL, substrate paclitaxel, garcinol 0.11-30 µM): > 30 µM
- Inhibition of CYP2C8 (in words) (CYP2C8): no apparent inhibition
- Inhibition of CYP2C8 (in words) (CYP2C8; listed as garcinol): negligibly inhibited
- IC50 (CYP1A2): 7.6 µM
- IC50 (CYP2D6): 9.5 µM
- IC50 (CYP3A4 [7]): 5.1 µM
